In experiment [1] the target is T1, human recombinant HDAC6 (Homo sapiens, UniProt Q9UBN7).
T1 construct: purchased Calbiochem Inc. 382180
T1 sequence (Q9UBN7 1-1215): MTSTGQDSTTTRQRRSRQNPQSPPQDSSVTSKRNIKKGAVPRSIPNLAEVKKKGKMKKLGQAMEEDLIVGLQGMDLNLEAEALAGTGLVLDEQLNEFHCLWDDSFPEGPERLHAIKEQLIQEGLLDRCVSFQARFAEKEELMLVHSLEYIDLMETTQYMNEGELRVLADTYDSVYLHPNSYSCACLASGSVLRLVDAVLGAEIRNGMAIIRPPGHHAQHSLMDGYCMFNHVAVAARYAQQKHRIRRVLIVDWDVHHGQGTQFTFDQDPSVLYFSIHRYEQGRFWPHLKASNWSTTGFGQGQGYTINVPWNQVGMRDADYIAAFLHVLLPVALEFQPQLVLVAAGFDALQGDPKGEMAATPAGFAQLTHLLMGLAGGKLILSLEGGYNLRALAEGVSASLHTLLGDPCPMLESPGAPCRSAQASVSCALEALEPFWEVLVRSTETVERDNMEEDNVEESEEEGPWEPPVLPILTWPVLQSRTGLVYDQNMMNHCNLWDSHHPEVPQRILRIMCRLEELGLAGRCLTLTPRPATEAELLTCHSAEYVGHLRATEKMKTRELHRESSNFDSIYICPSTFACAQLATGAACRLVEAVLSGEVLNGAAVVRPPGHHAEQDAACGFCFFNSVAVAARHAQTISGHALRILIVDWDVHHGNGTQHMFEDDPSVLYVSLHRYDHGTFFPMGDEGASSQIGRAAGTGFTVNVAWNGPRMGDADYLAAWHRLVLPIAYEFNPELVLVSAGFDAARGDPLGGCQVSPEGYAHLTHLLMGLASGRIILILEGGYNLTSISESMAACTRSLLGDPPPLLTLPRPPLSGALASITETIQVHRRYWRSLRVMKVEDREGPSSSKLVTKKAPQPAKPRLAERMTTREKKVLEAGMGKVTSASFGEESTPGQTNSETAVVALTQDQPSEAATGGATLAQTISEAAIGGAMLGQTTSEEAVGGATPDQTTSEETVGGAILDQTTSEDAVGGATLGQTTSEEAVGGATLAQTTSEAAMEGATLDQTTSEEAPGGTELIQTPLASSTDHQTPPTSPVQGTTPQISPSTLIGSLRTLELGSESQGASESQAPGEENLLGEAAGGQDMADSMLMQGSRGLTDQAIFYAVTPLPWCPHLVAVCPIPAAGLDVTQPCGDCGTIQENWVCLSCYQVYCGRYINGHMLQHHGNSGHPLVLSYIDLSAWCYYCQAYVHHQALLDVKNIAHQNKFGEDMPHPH
Briefly: HDAC6 enzyme activity inhibition (HDAC Fluorimetric Drug Discovery Kit). The class given is biochemical. In short, it runs like this: (§1)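 Fluorimetric deacetylase read-out: after 30 min with Developer II following a 60 min, 30° C reaction of recombinant enzyme ([…]) with 10 μM substrate, across five-fold serial compound dilutions.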

In experiment [2] the target is T2, human recombinant HDAC1 (Homo sapiens, UniProt Q13547).
T2 construct: purchased Enzo Life Science, Inc. BML-SE456
T2 sequence (Q13547 whole entry): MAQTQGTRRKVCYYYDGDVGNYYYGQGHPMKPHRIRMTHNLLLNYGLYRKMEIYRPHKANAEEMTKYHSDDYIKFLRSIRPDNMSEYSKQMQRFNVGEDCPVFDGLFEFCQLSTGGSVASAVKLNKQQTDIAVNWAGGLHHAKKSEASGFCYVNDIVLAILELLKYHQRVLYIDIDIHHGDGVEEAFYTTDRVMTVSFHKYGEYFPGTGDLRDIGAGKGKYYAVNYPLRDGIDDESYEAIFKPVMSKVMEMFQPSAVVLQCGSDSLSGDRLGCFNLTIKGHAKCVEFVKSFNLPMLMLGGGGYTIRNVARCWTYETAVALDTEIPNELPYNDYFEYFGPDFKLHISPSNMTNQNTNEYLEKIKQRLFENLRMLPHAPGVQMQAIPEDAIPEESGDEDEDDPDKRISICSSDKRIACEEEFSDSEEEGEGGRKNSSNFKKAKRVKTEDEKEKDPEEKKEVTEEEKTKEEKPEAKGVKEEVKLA
Briefly: HDAC1 enzyme activity inhibition (HDAC Fluorimetric Drug Discovery Kit). To be noted: read-out: HDAC1. Type of experiment: biochemical. In short, it runs like this:
as §1

Experiment [3] has as its system hippocampal neurons from a Sprague-Dawley (SD) rat fetus. Put plainly: Effect of HDAC6-specific inhibitor on axonal transport of mitochondria in amyloid-beta treated neurons. Type of experiment: cell-based. To be noted: transport velocity of mitochondria in neuronal axon after normalization; vehicle = 100%, amyloid beta treatment group = 0%; compound treatment for three hours. In short, it runs like this: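 Rat E17-18 hippocampal neurons exposed to amyloid-beta fragments […]; after 24 h (day 8 in vitro) compound added for 3 h, mitochondria stained with MitoTracker Red CMXRos. Confocal imaging every 1 s for 1 min gave per-mitochondrion velocity, normalized vehicle = 100%, amyloid-beta = 0%.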

Where [4] appears, read: human recombinant HDAC6, IC50 calculated with GraphPad Prism.
Setting [5] is: human recombinant HDAC1, IC50 calculated with GraphPad Prism.
[6] abbreviates: human recombinant HDAC6, same protocol as HDAC1.
Where [7] appears, read: human recombinant HDAC1, Fluor de Lys substrate, 30° C. 60 minutes.

Where two headings read alike, the source gives them in different places.

Regarding `CCN1CCc2cc(-c3cn(Cc4ccc(-c5nnc(C(F)F)o5)cn4)nn3)ccc2C1` [Compound 4052, 2-(difluoromethyl)-5-(6-((4-(2-ethyl-1,2,3,4-tetrahydroisoquinolin-6-yl)-1H-1,2,3-triazol-1-yl)methyl)pyridin-3-yl)-1,3,4-oxadiazole], the “HDAC6 selectivity (fold)” value in experiment [1] (HDAC1 IC50 / HDAC6 IC50) was 1128 fold. Besides, the IC50 in experiment [1] (setting [4]) was 0.0443 µM; in experiment [2] (setting [5]), more than 50 µM. For the same compound, the “Velocity distribution (%)” value in experiment [3] was “** (**, 50%˜100%)”.

For the compound `Fc1ccccc1-c1cn(Cc2ccc(-c3nnc(C(F)F)o3)cn2)nn1` [Compound 3853, 2-(difluoromethyl)-5-(6-((4-(2-fluorophenyl)-1H-1,2,3-triazol-1-yl)methyl)pyridin-3-yl)-1,3,4-oxadiazole], the “HDAC6 selectivity (fold)” value in experiment [1] (HDAC1 IC50 / HDAC6 IC50) stood at 1612 fold. Also, the figures for the IC50 in experiment [1] (setting [4]) and in experiment [2] (setting [5]) were 0.031 µM and more than 50 µM, respectively. Moreover, the “Velocity distribution (%)” value in experiment [3] is “** (**, 50%˜100%)”.

With `CN1CCC(Nc2cccc(-c3cn(Cc4ccc(-c5nnc(C(F)F)o5)cc4F)nn3)c2F)CC1` [Compound 4431, N-(3-(1-(4-(5-(difluoromethyl)-1,3,4-oxadiazol-2-yl)-2-fluorobenzyl)-1H-1,2,3-triazol-4-yl)-2-fluorophenyl)-1-methylpiperidin-4-amine], in experiment [1] (HDAC1 IC50 / HDAC6 IC50), the “HDAC6 selectivity (fold)” value is 2631 fold. Moreover, the IC50 in experiment [1] (setting [4]) is 0.019 µM; in experiment [2] (setting [5]), more than 50 µM. The “Velocity distribution (%)” value in experiment [3] is “*** (***, >100%)”.

Consider `FC(F)c1nnc(-c2ccc(Cn3cc(-c4cccs4)nn3)nc2)o1` [Compound 3902, 2-(difluoromethyl)-5-(6-((4-(thiophen-2-yl)-1H-1,2,3-triazol-1-yl)methyl)pyridin-3-yl)-1,3,4-oxadiazole], for which the “HDAC6 selectivity (fold)” value in experiment [1] (HDAC1 IC50 / HDAC6 IC50) came to 2415 fold. In addition, the IC50 was 0.0207 µM in experiment [1] (setting [4]) and more than 50 µM in experiment [2] (setting [5]). Moreover, the “Velocity distribution (%)” value in experiment [3] is given as “*** (***, >100%)”.

On to `CC1CCN(Cc2ccc(-c3cn(Cc4ncc(-c5nnc(C(F)F)o5)cc4F)nn3)cc2)CC1` [Compound 18307, 2-(difluoromethyl)-5-(5-fluoro-6-((4-(4-((4-methylpiperidin-1-yl)methyl)phenyl)-1H-1,2,3-triazol-1-yl)methyl)pyridin-3-yl)-1,3,4-oxadiazole], for which the “HDAC6 selectivity (fold)” value in experiment [1] (HDAC6 over HDAC1) worked out at 1028 fold. Besides, the IC50 in experiment [1] (setting [6]) is 0.0486 µM; in experiment [2] (setting [7]), more than 50 µM. In experiment [3], the “Velocity distribution (%)” value is “*** (***, >100%)”.

With `FC(F)c1nnc(-c2ccc(Cn3cc(-c4cccc5[nH]ncc45)nn3)nc2)o1` [Compound 4346, 2-(6-((4-(1H-indazol-4-yl)-1H-1,2,3-triazol-1-yl)methyl)pyridin-3-yl)-5-(difluoromethyl)-1,3,4-oxadiazole], in experiment [1] (HDAC1 IC50 / HDAC6 IC50), the “HDAC6 selectivity (fold)” value came out at 9090 fold. For the same compound, the values for the IC50 in experiment [1] (setting [4]) and in experiment [2] (setting [5]) were 0.0055 µM and more than 50 µM, respectively. In experiment [3], the “Velocity distribution (%)” value is “*** (***, >100%)”.

Regarding `CN1CCN(c2ccc(-c3cn(Cc4ccc(-c5nnc(C(F)F)o5)cn4)nn3)cc2)CC1` [Compound 4107, 2-(difluoromethyl)-5-(6-((4-(4-(4-methylpiperazin-1-yl)phenyl)-1H-1,2,3-triazol-1-yl)methyl)pyridin-3-yl)-1,3,4-oxadiazole], the “HDAC6 selectivity (fold)” value in experiment [1] (HDAC1 IC50 / HDAC6 IC50) came out at 1256 fold. Moreover, the figures for the IC50 in experiment [1] (setting [4]) and in experiment [2] (setting [5]) were 0.0398 µM and more than 50 µM, respectively. Moreover, the “Velocity distribution (%)” value in experiment [3] is given as “** (**, 50%˜100%)”.

Consider `FC(F)c1nnc(-c2ccc(Cn3cc(-c4cccc(NC5CCOCC5)c4)nn3)nc2)o1` [Compound 3827, N-(3-(1-((5-(5-(difluoromethyl)-1,3,4-oxadiazol-2-yl)pyridin-2-yl)methyl)-1H-1,2,3-triazol-4-yl)phenyl)tetrahydro-2H-pyran-4-amine], for which the “HDAC6 selectivity (fold)” value in experiment [1] (HDAC1 IC50 / HDAC6 IC50) is 2487 fold. Moreover, the IC50 in experiment [1] (setting [4]) was 0.0201 µM; in experiment [2] (setting [5]) it was more than 50 µM. For the same compound, the “Velocity distribution (%)” value in experiment [3] is “*** (***, >100%)”.

In the case of `CC(C)N1CCN(c2cccc(-c3cn(Cc4ccc(-c5nnc(C(F)F)o5)cc4F)nn3)n2)CC1` [Compound 17363, 2-(difluoromethyl)-5-(3-fluoro-4-((4-(6-(4-isopropylpiperazin-1-yl)pyridin-2-yl)-1H-1,2,3-triazol-1-yl)methyl)phenyl)-1,3,4-oxadiazole], the “HDAC6 selectivity (fold)” value in experiment [1] (HDAC6 over HDAC1) is 2212 fold. Moreover, the IC50 in experiment [1] (setting [6]) is 0.0226 µM; in experiment [2] (setting [7]), more than 50 µM. Further, the “Velocity distribution (%)” value in experiment [3] was “** (**, 50%˜100%)”.

Consider `CN(C)Cc1ccc(-c2cn(Cc3ncc(-c4nnc(C(F)F)o4)cc3F)nn2)cc1` [Compound 18308, 1-(4-(1-((5-(5-(difluoromethyl)-1,3,4-oxadiazol-2-yl)-3-fluoropyridin-2-yl)methyl)-1H-1,2,3-triazol-4-yl)phenyl)-N,N-dimethylmethanamine], for which the “HDAC6 selectivity (fold)” value in experiment [1] (HDAC6 over HDAC1) worked out at 770 fold. Besides, the IC50 in experiment [1] (setting [6]) is 0.0649 µM; in experiment [2] (setting [7]), more than 50 µM. In addition, the “Velocity distribution (%)” value in experiment [3] is reported as “*** (***, >100%)”.

For `Fc1cc(-c2nnc(C(F)F)o2)ccc1Cn1cc(-c2ccc3c(CN4CCOCC4)c[nH]c3c2)nn1` [Compound 4112], the “HDAC6 selectivity (fold)” value in experiment [1] (HDAC1 IC50 / HDAC6 IC50) is 3125 fold. Also, the IC50 in experiment [1] (setting [4]) was 0.016 µM; in experiment [2] (setting [5]) it was more than 50 µM. Besides, the “Velocity distribution (%)” value in experiment [3] is “*** (***, >100%)”.

On to `FC(F)c1nnc(-c2ccc(Cn3cc(-c4ccc5cc[nH]c5c4)nn3)cc2)o1` [Compound 4076, 2-(4-((4-(1H-indol-6-yl)-1H-1,2,3-triazol-1-yl)methyl)phenyl)-5-(difluoromethyl)-1,3,4-oxadiazole], for which the “HDAC6 selectivity (fold)” value in experiment [1] (HDAC1 IC50 / HDAC6 IC50) amounted to 739 fold. The IC50 is 0.0676 µM in experiment [1] (setting [4]) and more than 50 µM in experiment [2] (setting [5]). Moreover, in experiment [3], the “Velocity distribution (%)” value is recorded as “*** (***, >100%)”.

For `FC(F)c1nnc(-c2ccc(Cn3cc(-c4ccc5cc[nH]c5c4)nn3)nc2)o1` [Compound 3838, 2-(6-((4-(1H-indol-6-yl)-1H-1,2,3-triazol-1-yl)methyl)pyridin-3-yl)-5-(difluoromethyl)-1,3,4-oxadiazole], the “HDAC6 selectivity (fold)” value in experiment [1] (HDAC1 IC50 / HDAC6 IC50) stood at 7142 fold. Also, the IC50 in experiment [1] (setting [4]) is 0.007 µM; in experiment [2] (setting [5]) it was more than 50 µM. Further, the “Velocity distribution (%)” value in experiment [3] was “* (*, 0%˜50%)”.

With `FC(F)c1nnc(-c2ccc(Cn3cc(-c4ccc5c(CN6CCCC6)c[nH]c5c4)nn3)cc2)o1` [Compound 4108, 2-(difluoromethyl)-5-(4-((4-(3-(pyrrolidin-1-ylmethyl)-1H-indol-6-yl)-1H-1,2,3-triazol-1-yl)methyl)phenyl)-1,3,4-oxadiazole], the “HDAC6 selectivity (fold)” value in experiment [1] (HDAC1 IC50 / HDAC6 IC50) is on record as 5882 fold. Further, the figures for the IC50 in experiment [1] (setting [4]) and in experiment [2] (setting [5]) were 0.0085 µM and more than 50 µM, respectively. Moreover, in experiment [3], the “Velocity distribution (%)” value is “*** (***, >100%)”.

For `CN(C)Cc1ccc(-c2cn(Cc3ccc(-c4nnc(C(F)F)o4)cc3F)nn2)nc1` [Compound 17534, 1-(6-(1-(4-(5-(difluoromethyl)-1,3,4-oxadiazol-2-yl)-2-fluorobenzyl)-1H-1,2,3-triazol-4-yl)pyridin-3-yl)-N,N-dimethylmethanamine], the “HDAC6 selectivity (fold)” value in experiment [1] (HDAC6 over HDAC1) is 1319 fold. In addition, the IC50 in experiment [1] (setting [6]) was 0.0379 µM; in experiment [2] (setting [7]), more than 50 µM. For the same compound, in experiment [3], the “Velocity distribution (%)” value is listed as “*** (***, >100%)”.

In the case of `Fc1cc(-c2nnc(C(F)F)o2)cnc1Cn1cc(-c2ccc(CN3CCC3)s2)nn1` [Compound 18309, 2-(6-((4-(5-(azetidin-1-ylmethyl)thiophen-2-yl)-1H-1,2,3-triazol-1-yl)methyl)-5-fluoropyridin-3-yl)-5-(difluoromethyl)-1,3,4-oxadiazole], in experiment [1] (HDAC6 over HDAC1), the “HDAC6 selectivity (fold)” value stood at 1160 fold. Also, the figures for the IC50 in experiment [1] (setting [6]) and in experiment [2] (setting [7]) were 0.0431 µM and more than 50 µM, respectively. The “Velocity distribution (%)” value in experiment [3] is “** (**, 50%˜100%)”.
